# Entries after “also recorded” stand apart in the source; their conditions may differ. Bridge positions count the residues as written; N and C are the ends. Square brackets hold non-standard residues; d marks the D form. Peptide text beside a SMILES is read from it. R5 = C=CCCC[C@@](C)(N)C(=O)O; S5 = C=CCCC[C@](C)(N)C(=O)O
# What was measured:
# [1] = Histological analysis of lungs; format: in vivo, BALB/c mice
# Method: In order to track the infection, we used the recombinant virus rHRSV-Luc, which was previously shown to allow in vivo imaging studies of RSV replication and spreading and constitutes a powerful and convenient tool for the evaluation of drug efficiency against RSV in the mouse model ([24]). […] Mice were anesthetized at day 3 p.i. and observed alive using the IVIS imaging system 5 min after i.n. injection of D-luciferin. […] At day 3 p.i., a second dose of the peptide was administered to the mice, and the bioluminescence was measured at day 5 p.i. […] At day 7 p.i., a time corresponding to the end of the infection in mice, the animals were sacrificed and the lungs were collected in order to perform a histological analysis. […]
# Mice were sacrificed at day 7 p.i., the chest cavity was opened, and the lungs were perfused intratracheally with 4% paraformaldehyde (PFA) in PBS. […] The lungs were embedded in paraffin, and 5-μm sections were cut, stained with hematoxylin-eosin-saffron (HES), and evaluated microscopically. Qualitative histological changes were described and when applicable were scored semiquantitatively using a three-point scale from 0 to 2 (0, none; 1, mild; 2, marked), focusing on histological characterization of lesions (interstitial pneumonia, respiratory epithelial cell apoptosis, and hyperplasia) and inflammation.
# [2] = format: in vivo; conditions: noninfected mice, same i.n. protocol, blood 1 month after first inoculation, ELISA, data not shown
# Method: To investigate this further, peptide 4ca was administered to noninfected animals according to the same protocol. The blood of mice was collected 1 month after the first inoculation, and the presence of anti-4ca antibodies in the sera of these animals was analyzed by enzyme-linked immunosorbent assay (ELISA).
# HEp-2 cells = assay: Cytotoxicity, CellTiter-Glo Luminescent cell viability assay; format: cell-based; conditions: serial dilutions of peptide, 24 h, duplicates
# Method: Viral replication was quantified by measuring the mCherry fluorescence at 48 h p.i. and normalized based on the fluorescence of infected and untreated cells. (B) Cytotoxicity assay. HEp-2 cells were incubated in the presence of serial dilutions of peptides, and cell survival was quantified using the CellTiter-Glo Luminescent cell viability assay 24 h after the addition of the peptides. The signal was normalized based on the luminescence obtained for untreated cells. Error bars are standard deviations from duplicates.
# A549 (ATCC CCL-185) cells were maintained in Dulbecco's modified Eagle medium (DMEM) supplemented with 10% fetal calf serum (FCS). HEp-2 (ATCC CCL-23) cells were maintained in Eagle's miminum essential medium (EMEM) supplemented with 10% FCS, 2 mM L-glutamine, and penicillin-streptomycin solution. The cells were grown in an incubator at 37°C in 5% CO2. Cytotoxicity assays were done with the CellTiter-Glo Luminescent cell viability assay (Promega).
# [3] = Temperature-dependent CD (T ramp), oligomeric state; format: physicochemical; conditions: 25 and 50 μM peptide, 25°C to 90°C in 5°C increments
# Method: The temperature was increased from 25°C to 90°C in 5°C increments. […] Next, HEp-2 cells were infected with a recombinant RSV expressing the mCherry reported gene ([24]), and the inhibitory activity of the double-stapled peptides was quantified by fluorescence readout.
# B) […]. The cell holding the sample was heating at the desired temperature and the CD spectra was measured as described in material and methods. The temperature was increased from 25 °C to 90 °C by 5 °C increments.
# Panel C) and D) are the CD curve performed at 25 °C prior to increase the temperature (unheated) and after letting the sample heated at 90 °C (heated) cool down to 25 °C. […]
# [4] = Far-UV circular dichroism, α-helical content; format: physicochemical; conditions: CD, 10 mM phosphate buffer pH 7.5, 50 μM peptide, 25°C
# Method: The circular dichroism spectra were acquired on a Chirascan spectropolarimeter. The samples were prepared in 10 mM phosphate buffer, pH 7.5, at a peptide concentration of 50 μM. Data were recorded at 25°C by step scan from 180 nm to 260 nm in a 0.5-mm path length quartz cell using 1-nm wavelength increments and a response time of 1 s. The data were converted to per residue molar ellipticity units [θ] (degree per square centimeter per decimole per residue) and smoothed using the Igor Pro software. The percentage of helicity was calculated as described previously ([35]).
# [5] = test system: rHRSV-mCherry in HEp-2 cells; assay: rHRSV-mCherry inhibition assay; format: cell-based, human respiratory syncytial virus
# Method in brief: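 HEp-2 cells infected at MOI 0.2 with rHRSV-mCherry preincubated 15–20 min with serially diluted peptide, peptide kept in 2% FBS medium for 48 h at 37°C. Replication read as mCherry fluorescence (ex 580/em 620 nm), normalized to untreated infected cells; duplicates, curves fitted.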
structure (smiles),measurement,setting,value
"CC[C@H](C)[C@@H]1NC(=O)[C@H](Cc2ccccc2)NC(=O)[C@@](C)(NC(=O)[C@H](CC(C)C)NC(=O)[C@H](CO)NC(=O)[C@]2(C)CCCC=CCCC[C@@](C)(NC(=O)[C@H](CCC(=O)O)NC(C)=O)C(=O)N[C@@H]([C@@H](C)CC)C(=O)N[C@@H](CC(N)=O)C(=O)N2)CCCC=CCCC[C@@](C)(C(=O)N[C@@H](CO)C(=O)N[C@@H](CC(=O)O)C(=O)N[C@@H](CCC(=O)O)C(=O)N[C@@H](CC(C)C)C(=O)N[C@@H](CC(C)C)C(=O)N[C@@H](Cc2c[nH]cn2)C(=O)N[C@@H](CC(N)=O)C(=O)N[C@H](C(N)=O)C(C)C)NC(=O)[C@H](CCCNC(=N)N)NC1=O [Peptide 4ca] (Ac-E[R5]IN[S5]SL[S5]FIR[S5]SDELLHNV-NH2; staple 2-5, 8-12)",histological changes in lung parenchyma (toxicity),"[1]; 4ca-inoculated versus mock-inoculated noninfected mice, i.n. 50 μl at 50 μM, day 7, HES staining",no histological changes
same,interstitial pneumonia after RSV infection,"[1]; RSV-infected mice treated i.n. with 4ca, day 7 p.i., HES staining",no interstitial pneumonia was observed
same,"antibodies specific to 4ca in sera (anti-IgG1, anti-IgG2a, anti-IgA)",[2],no antibodies specific to 4ca could be detected
same,cellular toxicity,HEp-2 cells,no cellular toxicity was detected
same,conformational change / aggregation on temperature ramping,[3],No significant conformational change; also recorded: does not aggregate
same,% Helicity,[4]; Table 2,>100%
same,% Helicity,[4]; Table 3 (Ala scan),85%
same,EC50,"[5]; HEp-2, rHRSV-mCherry MOI 0.2, addition of peptide after infection of cells, 48 h p.i.",8300 nM
same,EC50,"[5]; HEp-2, rHRSV-mCherry MOI 0.2, preincubation of the virus with peptide prior to cell infection, 48 h p.i.",860 nM
same,EC50,"[5]; HEp-2, rHRSV-mCherry MOI 0.2, preincubation of virus with peptide and peptide maintained in medium after infection, 48 h p.i.",470 nM
same,increase of antiviral potency relative to T118,"[5]; HEp-2, rHRSV-mCherry, EC50 versus T118 EC50 6.33 μM",11 fold
same,EC50,"[5]; HEp-2 cells, RSV-Cherry MOI 0.2, peptide and virus removed after infection and fresh peptide added, mCherry fluorescence 48 h p.i., at least twice in duplicate",590 ± 130 nM
same,EC50,"[5]; Table 3 (Ala scan), HEp-2 cells, rHRSV-mCherry MOI 0.2, 2-fold serial dilutions (11 dilutions), duplicate, ± SD of fit",780 ± 60 nM
